Reference: US8969573B2, “Compounds for the inhibition of cellular proliferation” (President and Fellows of Harvard College, priority 2010, dated 2015)
Read-outs that look alike come from different tables or passages of the source.

What was measured:
[1] = system: CRL2813 human melanoma; test: SRB assay (inhibition of cell proliferation); assay type: cell-based
Source text: (§1) A sulfur rhodamine B (SRB) assay was used to determine the extent of inhibition of cell proliferation as a measure of the anti-cancer activity of compounds of the present disclosure. The reagent SRB binds to cellular proteins and absorbs light proportionally to the cellular protein content, which is a surrogate marker for the number of cells. According to aspects of the present disclosure, the assay can be used to with any cancer cell line including breast cancer cell lines, prostate cancer cell lines, melanoma cell lines, lung cancer cell lines or any other cell lines of the cancers described herein.
(§2) The following protocol was used to determine the growth characteristics of certain cell lines CRL2351 human breast cancer and CRL2813 human melanoma from which cell lines having doubling times less than 48 hours were selected for growth inhibition experiments. […] The following materials were used in addition to the cancel cell lines: complete (5% fetal calf serum added) tissue culture media, 96-well tissue culture plates, Sulforhodamine B dye (SRB, 0.57% w/w), […] (TCA, 10%), acetic acid glacial (1%) and 10 mM Tris base. The cells were prepared and plated. Cancer cells were grown to 80% confluency in an incubator. The cells were trypsinized per standard protocol or as needed for each cell line. The trypsin was neutralized, cells dissociated and counted. Each cell line was plated at a density of 500, 1000 and 3000 cells per well (six wells each) in five separate plates. The cells were then returned to the incubator. One plate was then removed each day starting day one after plating. 100 μl of 10% TCA was then added and the cells were fixed at 4° C. until all the cells were fixed. […] The cell growth for vehicle treatment is considered to be 100%. The optical density was then measured and plotted for each starting cell number and cell line against time. The percent cell growth inhibition was calculated as 100 minus the % of control cell growth. The % of control cell growth=((mean OD sample−Mean OD day 0)/(mean OD vehicle−Mean OD day 0))*100.

[2] = system: CRL2351 human breast cancer; test: SRB assay (inhibition of cell proliferation); assay type: cell-based; settings: CRL2351 human breast cancer cells
Source text: as §1, §2

[3] = target: eIF4E/eIF4G interaction (Homo sapiens, UniProt P06730); test: Fluorescent polarization assay; assay type: binding; settings: FITC eIF4G peptide and recombinant eIF4E, ratio to Z (4EGI-1 = 1)
Chain of eIF4E/eIF4G interaction (P06730 whole entry): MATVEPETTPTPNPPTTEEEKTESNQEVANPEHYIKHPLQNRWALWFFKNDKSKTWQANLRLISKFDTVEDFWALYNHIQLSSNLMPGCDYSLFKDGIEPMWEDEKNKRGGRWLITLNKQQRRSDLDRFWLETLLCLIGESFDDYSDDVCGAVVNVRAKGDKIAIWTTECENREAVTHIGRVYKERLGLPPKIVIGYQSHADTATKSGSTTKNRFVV
Description: The difference between the two measurement yields net polarization which is considered full signal of the assay (100% control). […] The activity of compound at each concentration is determined by comparing the fluorescent polarization (FP) signal in the presence of compound to the control (no compound) value. The percent inhibition is =100-((FP compound/FP control)*100).

[4] = Homo sapiens, CRL2813, CRL2813 human melanoma cells, summary table, read-out: IC50 [μM} CRL2813
[5] = Homo sapiens, summary table, read-out: IC50 [μM} CRL2351
[6] = Homo sapiens, CRL2813, CRL2813 human melanoma cells, Tables 1, 4, 5, read-out: SRB-IC50 (μM) 2813
[7] = summary table, read-out: IC50 [μM} CRL2351
[8] = CRL2813 human melanoma cells, summary table, read-out: IC50 [μM} CRL2813
[9] = Homo sapiens, Tables 1, 4, 5, read-out: SRB-IC50 (μM) 2351

| Structure (SMILES) | IC50 [1, 4] | IC50 [2, 5] | Fp (ratio to Z) [3] | IC50 [1, 6] | IC50 [2, 7] | IC50 [1, 8] | IC50 [2, 9] |
| --- | --- | --- | --- | --- | --- | --- | --- |
| O=C(O)C(Cc1ccccc1[N+](=O)[O-])=NNc1nc(-c2ccccc2)c(-c2ccc(Cl)cc2)s1 [KY-349PR] | > 20 µM | > 20 µM | 1 |  |  |  |  |
| O=C(O)/C(=N\Nc1nc(-c2ccc(Cl)c(Cl)c2)cs1)c1ccccc1[N+](=O)[O-] [KY-782-Z, (Z)-2-(2-(4-(3,4-dichlorophenyl)thiazol-2-yl)hydrazono)-2-(2-nitrophenyl)acetic acid] |  | 13 µM | 0.83 |  |  | 10 µM |  |
| O=C(O)/C(=N/Nc1nc(-c2ccc(Cl)c(Cl)c2)cs1)c1cccc([N+](=O)[O-])c1 [KY-788-E, (E)-2-(2-(4-(3,4-dichlorophenyl)thiazol-2-yl)hydrazono)-2-(3-nitrophenyl)acetic acid] | 7 µM |  | 1.4 |  | 18 µM |  |  |
| O=C(O)/C(Cc1ccccc1[N+](=O)[O-])=N/Nc1nc(-c2ccc(OC(F)(F)F)cc2)cs1 [KY-627S] | > 20 µM | > 20 µM | 0.65 |  |  |  |  |
| COCc1cn(-c2ccc(-c3sc(NN=C(Cc4ccccc4[N+](=O)[O-])C(=O)O)nc3-c3ccc(OC)cc3)cc2)nn1 [KY-443A16-19] | 14 ± 0.73 µM | > 20 µM | 1 |  |  |  |  |
| COc1ccc(-c2nc(NN=C(Cc3ccccc3[N+](=O)[O-])C(=O)O)sc2-c2ccc(Cl)cc2)cc1 [KY-355PR] | 3 ± 0.18 µM | > 20 µM | 1.1 |  |  |  |  |
| [N-]=[N+]=NC/C(=N\Nc1nc(-c2ccc(Cl)c(Cl)c2)cs1)C(=O)O [KY-757-p, (E)-3-azido-2-(2-(4-(3,4-dichlorophenyl)thiazol-2-yl)hydrazono) propanoic acid] | > 20 µM | > 20 µM | 1 |  |  |  |  |
| COc1ccc(-c2sc(N/N=C(/Cc3ccccc3[N+](=O)[O-])C(=O)O)nc2-c2ccc(OC(C)C)cc2)cc1 [KY-599S] | 3 µM | 8.7 µM | 1.3 |  |  |  |  |
| Cc1ccc(-c2nc(NN=C(Cc3ccccc3[N+](=O)[O-])C(=O)O)sc2-c2ccc(Cl)c(Cl)c2)cc1 [KY-365A22-B3] | 3.3 µM | 3.2 µM | 0.85 |  |  |  |  |
| COc1ccc(-c2nc(NN=C(Cc3ccccc3[N+](=O)[O-])C(=O)O)sc2-c2ccc(Cl)cc2)cc1OC [KY-353PR] | > 20 µM | > 20 µM | 0.7 |  |  |  |  |
| CCOc1ccc(-c2nc(N/N=C(/Cc3ccccc3[N+](=O)[O-])C(=O)O)sc2-c2ccc(OC)cc2)cc1 [KY-576S] |  |  | 0.82 |  | > 20 µM | 12.8 µM |  |
| COc1ccc(-c2nc(N/N=C(\Cc3ccccc3[N+](=O)[O-])C(=O)O)sc2-c2ccc(-c3ccccc3)cc2)cc1 [KY-435-F] |  |  | 0.5 |  | 2.8 ± 0.73 µM | 3 ± 0.56 µM |  |
| COc1ccc(-c2csc(NN=C(Cc3ccccc3[N+](=O)[O-])C(=O)O)n2)cc1 [EK-B2] | 11 µM | 7 µM | 0.86 |  |  |  |  |
| O=C(O)/C(Cc1ccc([N+](=O)[O-])cc1)=N\Nc1nc(-c2ccc(Cl)c(Cl)c2)cs1 [KY-755-p] | 5 µM | 15 µM | 1 |  |  |  |  |
| COc1ccc(-c2nc(N/N=C(\Cc3ccccc3[N+](=O)[O-])C(=O)O)sc2-c2ccc(I)cc2)cc1 [KY-613S] | 2.7 µM | 9.5 µM | 1.1 |  |  |  |  |
| O=C(O)C(Cc1ccccc1[N+](=O)[O-])=NNc1nc(-c2cc(Br)cc(Br)c2O)cs1 [KH-102BIIs] |  |  | 0.69 |  | 18 µM | 20.5 µM |  |
| [N-]=[N+]=NCCCCCOc1ccc(-c2csc(N/N=C(/Cc3ccccc3[N+](=O)[O-])C(=O)O)n2)cc1 [KH-168S] | 16 µM | > 20 µM | 1.29 | 16 µM |  |  |  |
| COc1ccc(-c2sc(N/N=C(/Cc3ccccc3[N+](=O)[O-])C(=O)O)nc2-c2ccc(C3CCCCC3)cc2)cc1 [KY-612S] |  | 11 µM | 1.8 |  |  | 0.3 µM |  |
| COc1ccc(-c2sc(NN=C(Cc3ccccc3[N+](=O)[O-])C(=O)O)nc2-c2ccc(OC)c(OC)c2)cc1 [KY-343PR] | > 20 µM | > 20 µM | 1 |  |  |  |  |
| CCOc1ccc(-c2nc(N/N=C(/Cc3ccccc3[N+](=O)[O-])C(=O)O)sc2-c2ccc(OC)cc2)cc1 [KY-576F] |  |  | 1 |  | 2 µM | 2 µM |  |
| COc1ccc(-c2nc(N/N=C(/Cc3ccccc3[N+](=O)[O-])C(=O)O)sc2-c2cccc(-n3cc(CO)nn3)c2)cc1 [KY-467S] | > 20 µM | > 20 µM | 0.85 |  |  |  |  |

The remaining lines, values ahead:

| IC50 [1, 4] | IC50 [2, 5] | Fp (ratio to Z) [3] | IC50 [1, 6] | IC50 [2, 7] | IC50 [1, 8] | IC50 [2, 9] | Structure (SMILES) |
| --- | --- | --- | --- | --- | --- | --- | --- |
| 2.8 µM | 4.5 µM | 0.7 |  |  |  |  | COc1ccc(-c2sc(N/N=C(/Cc3ccccc3[N+](=O)[O-])C(=O)O)nc2-c2ccc(Cl)c(Cl)c2)cc1 [KY-600] |
| 3.5 µM | 9 µM | 0.75 |  |  |  |  | N.O=C(O)/C(Cn1cc(-c2ccccn2)nn1)=N/Nc1nc(-c2ccc(Cl)c(Cl)c2)cs1 [KY-767, ammonium (E)-2-(2-(4-(3,4-dichlorophenyl)thiazol-2-yl)hydrazono)-3-(4-(pyridin-2-yl)-1H-1,2,3-triazol-1-yl)propanoate] |
| 18.6 µM |  | 1.04 | 18.6 µM | > 20 µM |  |  | [N-]=[N+]=NCCCOc1ccc(-c2csc(N/N=C(/Cc3ccccc3[N+](=O)[O-])C(=O)O)n2)cc1 [KH-167f] |
| 15 ± 1.12 µM | > 20 µM | 1.2 |  |  |  |  | COc1ccc(-c2nc(NN=C(Cc3ccccc3[N+](=O)[O-])C(=O)O)sc2-c2ccc(-n3cc(-c4cccc(O)c4)nn3)cc2)cc1 [KY-441] |
| 12.6 µM | 12 µM | 1.05 | 12.5 µM |  |  | 11 µM | [N-]=[N+]=NCCCCOc1ccc(-c2csc(NN=C(Cc3ccccc3[N+](=O)[O-])C(=O)O)n2)cc1 [KH-113s] |
| 3.5 µM | 0.54 µM | 0.55 |  |  |  |  | COC(=O)C1CN(c2nc(-c3ccc(Cl)c(Cl)c3)cs2)CCN1c1ccccc1[N+](=O)[O-] (stereo not drawn) [RYF-273] |
| 16 ± 1.8 µM | 17 µM | 2.5 |  |  |  |  | COc1ccc(-c2nc(NN=C(Cc3ccccc3[N+](=O)[O-])C(=O)O)sc2-c2ccc(-n3cc(-c4ccc(N)cc4)nn3)cc2)cc1 [KY-449] |
| 1 µM | 3 µM | 1.1 |  |  |  |  | O=C(O)/C(Cc1ccc(C(F)(F)F)cc1)=N/Nc1nc(-c2ccc(Cl)c(Cl)c2)cs1 [KY-680] |
| 11 µM | 1.2 µM | 0.82 | 11 µM |  |  | 1.3 µM | [N-]=[N+]=NCCOc1cccc(-c2csc(N/N=C(/Cc3ccccc3[N+](=O)[O-])C(=O)O)n2)c1 [KH-174] |
